Laboratory results taken from the NIST ThermoML archive (doi:10.1016/j.jct.2009.07.021).
Where “and” joins values, the source holds several entries; their conditions need not be identical. Equal entries are not always repeated.

Assays:
[1] = Crystal, Calculated from knudsen effusion weight loss
[2] = molar enthalpy of transition or fusion; conditions: 298.15 K; Crystal; Clausius-Clapeyron Eq with Heat Capacity

CC(=O)c1cc(-c2ccccc2)sc1C [3-acetyl-2-methyl-5-phenylthiophene]
[1]
Conditions	vapor or sublimation pressure
321.12 K	6.03e-05 kPa and 6.33e-05 kPa and 6.05e-05 kPa
323.13 K	7.9e-05 kPa and 7.98e-05 kPa and 7.73e-05 kPa
325.21 K	0.000102 kPa and 9.93e-05 kPa and 0.0001 kPa
327.12 K	0.000128 kPa and 0.000126 kPa and 0.00013 kPa
329.16 K	0.000162 kPa and 0.00016 kPa and 0.000159 kPa
331.2 K	0.00021 kPa and 0.000202 kPa and 0.000204 kPa
333.12 K	0.000259 kPa and 0.000261 kPa and 0.000258 kPa
335.15 K	0.000328 kPa and 0.000322 kPa and 0.000323 kPa
336.13 K	0.000366 kPa and 0.000371 kPa and 0.000368 kPa
337.2 K	0.000425 kPa and 0.000414 kPa and 0.000409 kPa
338.15 K	0.000461 kPa and 0.000462 kPa and 0.00046 kPa
339.2 K	0.000535 kPa and 0.000522 kPa and 0.000515 kPa

Conditions	molar enthalpy of transition or fusion [kcal/mol]
[2]	26.03
